What all share (assay type): functional
Holding throughout (details): read-out: ED50 (the source's name)

For experiment [1], the system named is P388. Put plainly: Cytotoxicity against mouse P388 cells.
The test system of experiment [2] is A549. In words: Cytotoxicity against human A549 cells.
For experiment [3], the system named is HT-29. In words: Cytotoxicity against human HT29 cells.

Converted amounts (≈) assume the structure as drawn.

Regarding `CC(C)=CC(=O)/C=C(\C)C1CC[C@@]2(C)CC(=O)C=C(C)[C@@H]2C1` (stereo partly specified) [DYSOKUSONE D], the EC50 in experiment [1] came to 3.87 µg/mL (≈ 12.9 µM); in experiment [2] it was 2.39 µg/mL (≈ 7.95 µM); in experiment [3], 4.68 µg/mL (≈ 15.6 µM).
The matching figures for `CC1=CC(=O)C[C@]2(C)CCC(/C(C)=C/C=C/C(C)(C)O)C[C@@H]12` (stereo partly specified) [DYSOKUSONE E]: 2.64 µg/mL (≈ 8.73 µM), 3.76 µg/mL (≈ 12.4 µM) and 4.89 µg/mL (≈ 16.2 µM).

(Values after ChEMBL document CHEMBL1155629, “Cytotoxic prenyleudesmane diterpenes from the fruits of Dysoxylum kuskusense” (2000).)
